From ChEMBL document CHEMBL3885881, “DrugMatrix”

Species on record: Rattus norvegicus
Test: DrugMatrix - Regimen: Daily Repeat
Assay type: toxicity, organism-based, Sprague-Dawley
Parameters: regimen Daily Repeat, gender Male, age 6-8 weeks
Conditions: in vivo, po, route oral GAVAGE, vehicle .5 % CMC; for ABSOLUTE BASOPHIL / ABSOLUTE EOSINOPHIL / ABSOLUTE LYMPHOCYTE / ABSOLUTE MONOCYTE / ABSOLUTE SEGMENTED NEUTROPHIL / BASOPHIL / EOSINOPHIL / ERYTHROCYTE COUNT / HEMATOCRIT / HEMOGLOBIN / LEUKOCYTE COUNT / LYMPHOCYTE / MEAN CORPUSCULAR HEMOGLOBIN / MEAN CORPUSCULAR HEMOGLOBIN CONCENTRATION / MEAN CORPUSCULAR VOLUME / MONOCYTE / NEUTROPHIL / NUCLEATED RED BLOOD CELLS / PLATELET COUNT: tissue Blood; for ALANINE AMINOTRANSFERASE / ALBUMIN / ALKALINE PHOSPHATASE / ASPARTATE AMINOTRANSFERASE / BLOOD UREA NITROGEN / CARBON DIOXIDE / CHLORIDE / CHOLESTEROL / CREATINE PHOSPHOKINASE / CREATININE / GLUCOSE / LACTATE DEHYDROGENASE / LIPASE / PHOSPHORUS / POTASSIUM / SODIUM / TOTAL BILIRUBIN / TOTAL PROTEIN / URIC ACID: tissue Plasma
[1] = 150 mg/kg, 120 h, dose level Low, time 5 day
[2] = 1500 mg/kg, 72 h, dose level High, time 3 day
[3] = 1500 mg/kg, 120 h, dose level High, time 5 day

C[C@]1(Cn2ccnn2)[C@H](C(=O)O)N2C(=O)C[C@H]2S1(=O)=O [TAZOBACTAM]
ABSOLUTE BASOPHIL [1]: 0 CELLS/uL | ABSOLUTE EOSINOPHIL [1]: 96 CELLS/uL | ABSOLUTE LYMPHOCYTE [1]: 12730.67 CELLS/uL | ABSOLUTE MONOCYTE [1]: 0 CELLS/uL | ABSOLUTE SEGMENTED NEUTROPHIL [1]: 1940 CELLS/uL | BASOPHIL [1]: 0% | EOSINOPHIL [1]: 0.67% | ERYTHROCYTE COUNT [1]: 5.47 x10E6/uL | HEMATOCRIT [1]: 33.33% | HEMOGLOBIN [1]: 12.73 G/DL | LEUKOCYTE COUNT [1]: 14.77 x10E3/uL | LYMPHOCYTE [1]: 86% | MEAN CORPUSCULAR HEMOGLOBIN [1]: 23.3 pg | MEAN CORPUSCULAR HEMOGLOBIN CONCENTRATION [1]: 38.2 G/DL | MEAN CORPUSCULAR VOLUME [1]: 60.97 fL | MONOCYTE [1]: 0% | NEUTROPHIL [1]: 13.33% | NUCLEATED RED BLOOD CELLS [1]: 0 /100WBC | PLATELET COUNT [1]: 1082 x10E3/uL | ALANINE AMINOTRANSFERASE [1]: 60.67 u/L | ALBUMIN [1]: 4.2 G/DL | ALKALINE PHOSPHATASE [1]: 333 u/L | ASPARTATE AMINOTRANSFERASE [1]: 84 u/L | BLOOD UREA NITROGEN [1]: 17.33 mg/dL | CARBON DIOXIDE [1]: 23.33 mmol/L | CHLORIDE [1]: 104.33 MEQ/L | CHOLESTEROL [1]: 76.67 mg/dL | CREATINE PHOSPHOKINASE [1]: 277 u/L | CREATININE [1]: 0.21 mg/dL | GLUCOSE [1]: 141.33 mg/dL | LACTATE DEHYDROGENASE [1]: 295.67 u/L | LIPASE [1]: 9 u/L | PHOSPHORUS [1]: 13.07 mg/dL | POTASSIUM [1]: 6.29 MEQ/L | SODIUM [1]: 144.97 MEQ/L | TOTAL BILIRUBIN [1]: 0.17 mg/dL | TOTAL PROTEIN [1]: 5.8 G/DL | URIC ACID [1]: 1.83 mg/dL | ABSOLUTE BASOPHIL [2]: 0 CELLS/uL | ABSOLUTE EOSINOPHIL [2]: 240.33 CELLS/uL | ABSOLUTE LYMPHOCYTE [2]: 12544 CELLS/uL | ABSOLUTE MONOCYTE [2]: 44.33 CELLS/uL | ABSOLUTE SEGMENTED NEUTROPHIL [2]: 838 CELLS/uL | BASOPHIL [2]: 0% | EOSINOPHIL [2]: 1.67% | ERYTHROCYTE COUNT [2]: 5.29 x10E6/uL | HEMATOCRIT [2]: 33.47% | HEMOGLOBIN [2]: 12.83 G/DL | LEUKOCYTE COUNT [2]: 13.67 x10E3/uL | LYMPHOCYTE [2]: 91.67% | MEAN CORPUSCULAR HEMOGLOBIN [2]: 24.23 pg | MEAN CORPUSCULAR HEMOGLOBIN CONCENTRATION [2]: 38.33 G/DL | MEAN CORPUSCULAR VOLUME [2]: 63.23 fL | MONOCYTE [2]: 0.33% | NEUTROPHIL [2]: 6.33% | NUCLEATED RED BLOOD CELLS [2]: 0 /100WBC | PLATELET COUNT [2]: 1291.33 x10E3/uL | ALANINE AMINOTRANSFERASE [2]: 65.33 u/L | ALBUMIN [2]: 4.1 G/DL | ALKALINE PHOSPHATASE [2]: 447.33 u/L | ASPARTATE AMINOTRANSFERASE [2]: 89 u/L | BLOOD UREA NITROGEN [2]: 15.67 mg/dL | CARBON DIOXIDE [2]: 27.33 mmol/L | CHLORIDE [2]: 102.67 MEQ/L | CHOLESTEROL [2]: 73.33 mg/dL | CREATINE PHOSPHOKINASE [2]: 209.33 u/L | CREATININE [2]: 0.18 mg/dL | GLUCOSE [2]: 161.67 mg/dL | LACTATE DEHYDROGENASE [2]: 102 u/L | LIPASE [2]: 9 u/L | PHOSPHORUS [2]: 13.27 mg/dL | POTASSIUM [2]: 6.83 MEQ/L | SODIUM [2]: 146.53 MEQ/L | TOTAL BILIRUBIN [2]: 0.17 mg/dL | TOTAL PROTEIN [2]: 5.63 G/DL | URIC ACID [2]: 1.73 mg/dL | ABSOLUTE BASOPHIL [3]: 0 CELLS/uL | ABSOLUTE EOSINOPHIL [3]: 130.33 CELLS/uL | ABSOLUTE LYMPHOCYTE [3]: 11683.33 CELLS/uL | ABSOLUTE MONOCYTE [3]: 0 CELLS/uL | ABSOLUTE SEGMENTED NEUTROPHIL [3]: 1019.67 CELLS/uL | BASOPHIL [3]: 0% | EOSINOPHIL [3]: 1% | ERYTHROCYTE COUNT [3]: 5.74 x10E6/uL | HEMATOCRIT [3]: 36.23% | HEMOGLOBIN [3]: 13.93 G/DL | LEUKOCYTE COUNT [3]: 12.83 x10E3/uL | LYMPHOCYTE [3]: 91% | MEAN CORPUSCULAR HEMOGLOBIN [3]: 24.47 pg | MEAN CORPUSCULAR HEMOGLOBIN CONCENTRATION [3]: 38.5 G/DL | MEAN CORPUSCULAR VOLUME [3]: 63.5 fL | MONOCYTE [3]: 0% | NEUTROPHIL [3]: 8% | NUCLEATED RED BLOOD CELLS [3]: 0 /100WBC | PLATELET COUNT [3]: 1185.67 x10E3/uL | ALANINE AMINOTRANSFERASE [3]: 58.67 u/L | ALBUMIN [3]: 4.4 G/DL | ALKALINE PHOSPHATASE [3]: 302 u/L | ASPARTATE AMINOTRANSFERASE [3]: 76 u/L | BLOOD UREA NITROGEN [3]: 18.33 mg/dL | CARBON DIOXIDE [3]: 27 mmol/L | CHLORIDE [3]: 104 MEQ/L | CHOLESTEROL [3]: 62.67 mg/dL | CREATINE PHOSPHOKINASE [3]: 174 u/L | CREATININE [3]: 0.22 mg/dL | GLUCOSE [3]: 170 mg/dL | LACTATE DEHYDROGENASE [3]: 115.67 u/L | LIPASE [3]: 9 u/L | PHOSPHORUS [3]: 12.83 mg/dL | POTASSIUM [3]: 6.45 MEQ/L | SODIUM [3]: 148.17 MEQ/L | TOTAL BILIRUBIN [3]: 0.2 mg/dL | TOTAL PROTEIN [3]: 6.2 G/DL | URIC ACID [3]: 1.8 mg/dL
